Source: PMC4366154, “Easy to Use Plastic Optical Fiber-Based Biosensor for Detection of Butanal” (PLoS ONE, 2015)

Target: T1, porcine odorant-binding protein (pOBP) (Sus scrofa, UniProt P81245)
T1 construct: recombinant in E. coli BL21-DE3 from pGEX2TK as GST fusion, GST cut off on column with thrombin
T1 sequence (P81245 1-157): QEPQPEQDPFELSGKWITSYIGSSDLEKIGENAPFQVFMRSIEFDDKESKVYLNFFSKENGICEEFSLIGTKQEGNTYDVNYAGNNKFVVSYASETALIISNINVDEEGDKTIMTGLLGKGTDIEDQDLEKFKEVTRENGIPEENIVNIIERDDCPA
Experiment: direct fluorescence titration, emission at […] nm
Details: 20 mM Tris-HCl pH 7.8, 1.0 μM pOBP, overnight at 4 °C

For `Nc1cccc2cc3ccccc3cc12` [1-amino-anthracene], which “direct fluorescence titration, emission at 480 nm” value is on record?
Its value is “direct titrations using the fluorescent ligand 1-amino-anthracene (AMA)”.
